Tested on: A549 cells
Assay: CellEvent Caspase 3/7 green detection assay of apoptosis, brightfield and fluorescent imaging
Format: cell-based, human
Settings: for concentration at which exponentially more cells undergo apoptosis than at lower concentrations: at 48 hours (AITC, combinations) or earlier than at lower concentrations; for induction of cell death (apoptosis): daily treatment, imaged at 24 to 96 hours (combinations up to 72 hours)
Procedure: A549 cells were plated into 48 well culture plates at a density of 3.0×10^4 cells/cm^2. Cells were dissociated with 0.05% trypsin EDTA following a 5-minute incubation at 37° C., neutralized in a 1:1 ratio of standard medium and counted using a hemocytometer prior to plating. All wells were settled overnight prior to addition of one of the following treatment compounds: AITC, PEITC, Thymoquinone, or Resveratrol. All treatments were performed within 24 hours following initial plating.
Treatment of the A549 cells occurred at the following time points and concentrations: AITC—25 μM, 50 μM and 100 μM for 24, 48 and 96 hours. PEITC—25 μM, 50 μM, 100 μM and 200 μM for 24, 48 and 96 hours. TQ—25 μM, 50 μM, 10 0 μM and 200 μM for 24, 48 and 96 hours. Resveratrol—25 μM, 50 μM and 100 μM for 48 and 96 hours. DMSO was used to dissolve each compound, and cells treated with DMSO without any of tested compounds served as a control. Treated cells received daily treatments using the same concentrations until the last time point of the experiment.
Apoptosis was detected using the CellEvent Caspase 3/7 green detection kit/assay from Thermofisher Scientific. Cells were incubated with diluted assay reagent for 30 minutes at 37° C. prior to analysis, and imaged by a brightfield and a fluorescent microscopes.
CellEvent Caspase-3/7 Green Detection Reagent is intrinsically non-fluorescent, as the four amino acid peptide (DEVD peptide) inhibits the ability of the dye to bind to DNA. However, following activation of caspase-3/7 in apoptotic cells, the DEVD peptide is cleaved, enabling the dye to bind to DNA and produce a bright, fluorogenic response. The fluorescent emission of the dye ˜530 can be observed under a fluorescent microscope.

Oc1ccc(C=Cc2cc(O)cc(O)c2)cc1 [Resveratrol]
apoptotic effect at 25 μM relative to higher concentrations (25 μM): reduced | concentration at which exponentially more cells undergo apoptosis than at lower concentrations: ≥ 50 µM | induction of cell death (apoptosis): induces cell death | onset of apoptotic effects (effects only observed at 48 and 96 hours): delayed relative to other compounds

CC1=CC(=O)C(C(C)C)=CC1=O [Thymoquinone]
concentration at which exponentially more cells undergo apoptosis than at lower concentrations: ≥ 100 µM | induction of cell death (apoptosis): induces cell death

C=CCN=C=S [AITC, Allyl Isothiocyanate]
concentration at which exponentially more cells undergo apoptosis than at lower concentrations: ≥ 50 µM | induction of cell death (apoptosis): induces cancer cell death
